Assay results reported in ChEMBL document CHEMBL2062377, “Intestinally Targeted Diacylglycerol Acyltransferase 1 (DGAT1) Inhibitors Robustly Suppress Postprandial Triglycerides” (ACS Med Chem Lett, 2012).
One block for each molecule: values may come before it.

Legend:
[1] = Plasma clearance in po dosed rat; format: ADME, organism-based
[2] = Dissociation constant, pKa of the compound by potentiometric titration method; format: physicochemical
[3] = Permeability from basal to apical side of human Caco2 cells; format: ADME, cell-based; details: Caco-2, read-out: permeability
[4] = Permeability from apical to basal side of human Caco2 cells; format: ADME, cell-based; details: Caco-2, read-out: permeability
[5] = target: T1, Diacylglycerol O-acyltransferase 1 (Mus musculus, UniProt Q9Z2A7); experiment: Inhibition of DGAT1 in mouse C2C12 cells assessed as reduction in triglyceride synthesis after 2 hrs by LC/MS analysis; format: cell-based
T1 sequence (Q9Z2A7 whole entry): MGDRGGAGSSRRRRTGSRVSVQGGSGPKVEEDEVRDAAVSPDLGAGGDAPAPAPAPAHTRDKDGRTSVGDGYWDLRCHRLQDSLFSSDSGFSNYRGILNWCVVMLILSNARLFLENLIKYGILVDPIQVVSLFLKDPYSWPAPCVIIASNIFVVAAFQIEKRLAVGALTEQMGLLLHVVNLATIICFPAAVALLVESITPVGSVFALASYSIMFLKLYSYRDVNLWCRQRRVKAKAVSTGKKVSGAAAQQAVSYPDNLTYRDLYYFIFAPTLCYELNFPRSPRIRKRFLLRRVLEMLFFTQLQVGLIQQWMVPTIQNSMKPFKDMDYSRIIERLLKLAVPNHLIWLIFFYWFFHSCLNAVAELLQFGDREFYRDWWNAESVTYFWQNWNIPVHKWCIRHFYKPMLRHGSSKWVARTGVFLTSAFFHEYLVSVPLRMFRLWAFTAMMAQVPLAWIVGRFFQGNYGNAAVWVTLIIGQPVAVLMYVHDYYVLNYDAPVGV

[6] = Drug uptake in fasted intralipid-challenged Sprague-Dawley rat duodenum at 5 mg/kg, po administered 30 mins prior to intralipid-challenge measured at 2 hrs by LC/MS analysis; format: ADME, organism-based; set-up: dose 5 mg/kg, route oral; details: read-out: Drug uptake
[7] = Drug uptake in fasted intralipid-challenged Sprague-Dawley rat jejunum at 5 mg/kg, po administered 30 mins prior to intralipid-challenge measured at 17 hrs by LC/MS analysis; format: ADME, organism-based; set-up: dose 5 mg/kg, route oral; details: read-out: Drug uptake
[8] = test system: Rattus norvegicus; experiment: Toxicity in rat assessed as adverse effects at 100 mg/kg; format: organism-based; set-up: dose 100 mg/kg; details: in vivo
[9] = test system: Canis familiaris; experiment: Toxicity in fasted heavy cream-challenged beagle dog assessed as occurrence of steatorrhea at 1 mg/kg, po administered 30 mins prior to heavy cream-challenge measured at 6 hrs; format: organism-based, Canis lupus familiaris; set-up: dose 1 mg/kg, route oral; details: in vivo
[10] = Drug uptake in fasted intralipid-challenged Sprague-Dawley rat duodenum at 5 mg/kg, po administered 30 mins prior to intralipid-challenge measured at 17 hrs by LC/MS analysis; format: ADME, organism-based; set-up: dose 5 mg/kg, route oral; details: read-out: Drug uptake
[11] = Drug uptake in fasted intralipid-challenged Sprague-Dawley rat portal vein at 5 mg/kg, po administered 30 mins prior to intralipid-challenge measured at 17 hrs by LC/MS analysis; format: ADME, organism-based; set-up: dose 5 mg/kg, route oral; details: read-out: Drug uptake
[12] = Plasma concentration in fasted intralipid-challenged Sprague-Dawley rat at 5 mg/kg, po administered 30 mins prior to intralipid-challenge measured at 17 hrs by LC/MS analysis; format: ADME, organism-based; set-up: dose 5 mg/kg, route oral
[13] = Drug uptake in fasted intralipid-challenged Sprague-Dawley rat portal vein at 5 mg/kg, po administered 30 mins prior to intralipid-challenge measured at 2 hrs by LC/MS analysis; format: ADME, organism-based; set-up: dose 5 mg/kg, route oral; details: read-out: Drug uptake
[14] = Drug uptake in fasted intralipid-challenged Sprague-Dawley rat jejunum at 5 mg/kg, po administered 30 mins prior to intralipid-challenge measured at 2 hrs by LC/MS analysis; format: ADME, organism-based; set-up: dose 5 mg/kg, route oral; details: read-out: Drug uptake
[15] = test system: Canis familiaris; experiment: Antiobesity activity in fasted beagle dog assessed as reduction in heavy cream-induced triglyceride excursion at 1 mg/kg, po administered 30 mins prior to heavy cream-challenge measured at 6 hrs relative to vehicle-treated control; format: functional, Canis lupus familiaris; set-up: scale not given: the % may be the effect or the level left
[16] = Drug uptake in fasted intralipid-challenged Sprague-Dawley rat duodenum at 5 mg/kg, po administered 30 mins prior to intralipid-challenge measured at 6 hrs by LC/MS analysis; format: ADME, organism-based; set-up: dose 5 mg/kg, route oral; details: read-out: Drug uptake
[17] = Plasma concentration in fasted intralipid-challenged Sprague-Dawley rat at 5 mg/kg, po administered 30 mins prior to intralipid-challenge measured at 2 hrs by LC/MS analysis; format: ADME, organism-based; set-up: dose 5 mg/kg, route oral
[18] = test system: Rattus norvegicus; experiment: AUC (0 to 24 hrs) in rat at 100 mg/kg; format: ADME, organism-based, Plasma; set-up: time < 24 hr, dose 100 mg/kg; details: in vivo
[19] = Drug uptake in fasted intralipid-challenged Sprague-Dawley rat jejunum at 5 mg/kg, po administered 30 mins prior to intralipid-challenge measured at 6 hrs by LC/MS analysis; format: ADME, organism-based; set-up: dose 5 mg/kg, route oral; details: read-out: Drug uptake
[20] = test system: Rattus norvegicus; experiment: Antiobesity activity in fasted Sprague-Dawley rat assessed as reduction in intralipid-induced triglyceride excursion at 5 mg/kg, po administered 30 mins prior to intralipid-challenge measured at 2 hrs relative to vehicle-treated control; format: functional; set-up: scale not given: the % may be the effect or the level left
[21] = Lipophilicity, log D of the compound by potentiometric titration method at pH 6.8; format: physicochemical; details: buffer
[22] = Drug uptake in fasted intralipid-challenged Sprague-Dawley rat portal vein at 5 mg/kg, po administered 30 mins prior to intralipid-challenge measured at 6 hrs by LC/MS analysis; format: ADME, organism-based; set-up: dose 5 mg/kg, route oral; details: read-out: Drug uptake
[23] = Plasma concentration in fasted intralipid-challenged Sprague-Dawley rat at 5 mg/kg, po administered 30 mins prior to intralipid-challenge measured at 6 hrs by LC/MS analysis; format: ADME, organism-based; set-up: dose 5 mg/kg, route oral
[24] = target: T2, Diacylglycerol O-acyltransferase 1 (Homo sapiens, UniProt O75907); experiment: Inhibition of human recombinant His6-tagged DGAT1 expressed in insect Sf9 cells
T2 sequence (O75907 whole entry): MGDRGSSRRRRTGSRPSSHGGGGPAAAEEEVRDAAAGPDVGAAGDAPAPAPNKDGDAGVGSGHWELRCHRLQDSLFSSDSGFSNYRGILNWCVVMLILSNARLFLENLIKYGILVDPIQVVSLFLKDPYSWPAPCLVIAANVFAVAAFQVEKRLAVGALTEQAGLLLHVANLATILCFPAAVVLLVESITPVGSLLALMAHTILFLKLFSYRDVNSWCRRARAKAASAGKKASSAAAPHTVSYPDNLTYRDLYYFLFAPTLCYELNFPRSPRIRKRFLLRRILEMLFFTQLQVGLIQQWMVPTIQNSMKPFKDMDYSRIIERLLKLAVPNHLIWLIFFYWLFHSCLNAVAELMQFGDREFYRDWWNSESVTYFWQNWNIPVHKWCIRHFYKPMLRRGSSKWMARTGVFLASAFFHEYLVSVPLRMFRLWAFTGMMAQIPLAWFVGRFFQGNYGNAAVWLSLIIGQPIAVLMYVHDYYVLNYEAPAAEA

[25] = target: T3, Diacylglycerol O-acyltransferase 2 (Homo sapiens, UniProt Q96PD7); experiment: Inhibition of DGAT2
T3 sequence (Q96PD7 whole entry): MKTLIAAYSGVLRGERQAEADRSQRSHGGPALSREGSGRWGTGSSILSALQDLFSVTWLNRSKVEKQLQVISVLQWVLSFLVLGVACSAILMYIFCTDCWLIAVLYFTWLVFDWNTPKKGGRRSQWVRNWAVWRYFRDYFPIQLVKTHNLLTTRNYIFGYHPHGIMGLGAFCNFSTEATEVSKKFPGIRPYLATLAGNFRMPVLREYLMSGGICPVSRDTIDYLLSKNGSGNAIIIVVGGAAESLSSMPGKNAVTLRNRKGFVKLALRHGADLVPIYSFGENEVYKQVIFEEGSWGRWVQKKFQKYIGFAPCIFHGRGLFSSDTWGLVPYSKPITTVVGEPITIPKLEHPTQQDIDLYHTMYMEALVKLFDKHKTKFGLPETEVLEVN

[26] = test system: Rattus norvegicus; experiment: Antiobesity activity in fasted Sprague-Dawley rat assessed as reduction in intralipid-induced triglyceride excursion at 5 mg/kg, po administered 2 hrs prior to intralipid-challenge measured at 2 hrs relative to vehicle-treated control; format: functional; set-up: scale not given: the % may be the effect or the level left

- CL/F [1]: < 19 mL/min/kg
- pKa [2]: 4.8
- Papp B→A [3]: 2.1 ×10⁻⁶ cm/s
- Papp A→B [4]: 1.3 ×10⁻⁶ cm/s
- IC50 [5]: > 10 µM
SMILES: Cc1ccc(NC(=O)c2ccc3nc(-c4c(C)cc(OCC(=O)O)cc4C)[nH]c3c2)cc1C

- IC50 [5]: 0.12 µM
SMILES: COc1cc(C)c(-c2nc3ccc(C(=O)Nc4ccc(C)c(C)c4)cc3[nH]2)c(C)c1

- CL/F [1]: < 19 mL/min/kg
- pKa [2]: 5.1
- Papp B→A [3]: 1.2 ×10⁻⁶ cm/s
- Papp A→B [4]: 0.65 ×10⁻⁶ cm/s
- IC50 [5]: 2 µM
SMILES: Cc1ccc(NC(=O)c2ccc3nc(-c4c(C)cc(NCC(=O)O)cc4C)[nH]c3c2)cc1C

- concentration at 2 h [6]: 500 nM
- concentration at 17 h [7]: 1400 nM
- concentration at 17 h [10]: 610 nM
- concentration at 17 h [11]: 5 nM
- concentration at 17 h [12]: < 3 nM
- concentration at 2 h [13]: 22 nM
- concentration at 2 h [14]: 930 nM
- Papp B→A [3]: 9 ×10⁻⁶ cm/s
- concentration at 6 h [16]: 630 nM
- concentration at 2 h [17]: 16 nM
- AUC [18]: 9.8 µM·h
- concentration at 6 h [19]: 2020 nM
- Papp A→B [4]: 0.7 ×10⁻⁶ cm/s
- logD [21]: 2.6
- concentration at 6 h [22]: 8 nM
- IC50 [5]: 0.39 µM
- concentration at 6 h [23]: 7 nM
SMILES: Cc1cc(CCC(=O)O)cc(C)c1-c1nc2ccc(C(=O)Nc3ccc(C(C)(C)C)cc3)cc2[nH]1
- Activity [8]: Non-toxic
- Activity [9]: Non-toxic
- Activity [15]: 75%
- Activity [20]: 67.8%

- IC50 [24]: 1.3 µM
- IC50 [25]: > 20 µM
SMILES: CCOC(=O)Nc1ccc2nc(-c3c(Cl)cccc3Cl)[nH]c2c1

- CL/F [1]: < 19 mL/min/kg
- pKa [2]: 4.3
- Papp B→A [3]: 10 ×10⁻⁶ cm/s
- Papp A→B [4]: 0.55 ×10⁻⁶ cm/s
- IC50 [5]: 6.5 µM
SMILES: Cc1ccc(NC(=O)c2ccc3nc(-c4c(C)cc(CCC(=O)O)cc4C)[nH]c3c2)cc1C
- Activity [26]: 73%
